Test results as given in PubChem BioAssay (NCI).
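Method: 48-hour compound exposure of cells in 96-well plates, five concentrations, linear interpolation of endpoints. GI50 marks 50% less growth. TGI: total growth inhibition.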

Tests used:
Assay in all cases: NCI-60 cell line screen, 48 h
KM12 colon = test system: KM12 colon
HCC-2998 colon = test system: HCC-2998 colon
OVCAR-8 ovarian = test system: OVCAR-8 ovarian
SK-MEL-2 melanoma = test system: SK-MEL-2 melanoma
CAKI-1 renal = test system: CAKI-1 renal
MOLT-4 leukemia = test system: MOLT-4 leukemia
RXF 393 renal = test system: RXF 393 renal
SR leukemia = test system: SR leukemia
T-47D breast = test system: T-47D breast
786-0 renal = test system: 786-0 renal
DU-145 prostate = test system: DU-145 prostate

SMILES	TGI (KM12 colon)	TGI (HCC-2998 colon)	TGI (OVCAR-8 ovarian)	TGI (SK-MEL-2 melanoma)	TGI (CAKI-1 renal)	TGI (MOLT-4 leukemia)	TGI (RXF 393 renal)	TGI (SR leukemia)	TGI (T-47D breast)	TGI (786-0 renal)	TGI (DU-145 prostate)	GI50 (KM12 colon)	GI50 (HCC-2998 colon)	GI50 (OVCAR-8 ovarian)	GI50 (SK-MEL-2 melanoma)	GI50 (MOLT-4 leukemia)	GI50 (RXF 393 renal)	GI50 (SR leukemia)	GI50 (T-47D breast)	GI50 (DU-145 prostate)
Cc1ccc(S(=O)(=O)ON2C(=O)c3c(N)c(C#N)c(-c4ccccc4)c(-c4ccccc4)c3C2=O)cc1	> 100 µM	89.1 µM	46 µM	54.2 µM	29.8 µM	38.7 µM	26.5 µM	35.9 µM	38.1 µM	29.8 µM	67.1 µM									
COCC12CCC(OC)C34C5CC6(O)C(OC)C=C(C5C6OC(=O)c5ccccc5)C(C(OC)C13)C4N(C)C2 (configuration not stated)	> 100 µM	> 100 µM	> 100 µM	> 100 µM	> 100 µM		> 100 µM	> 100 µM	> 100 µM	> 100 µM	> 100 µM									
CO[C@H]1O[C@@H]2OC3(C)CCC4[C@H](C)CCC([C@H]1C)[C@]42OO3 (some centres not stated)		> 100 µM	> 100 µM	> 100 µM	> 100 µM	> 100 µM	> 100 µM	> 100 µM	> 100 µM	> 100 µM	> 100 µM									
O=C(NCCc1ccccc1)c1cc(/C=C/c2cc(O)ccc2O)ccc1O	24.6 µM	21.7 µM	16.3 µM	11.8 µM	13.2 µM	7.5 µM	2.93 µM	8.58 µM	3.86 µM	6.18 µM	28.1 µM									
O=C(/C=C/c1ccc(O)c(O)c1)NC(COC(=O)/C=C/c1ccc(O)c(O)c1)C(=O)O (configuration not stated)	> 100 µM	> 100 µM	> 100 µM	> 100 µM	> 100 µM	> 100 µM	> 100 µM	> 100 µM	> 100 µM	> 100 µM	> 100 µM									
C/C(=C\CNc1ncnc2c1ncn2CCC(=O)OC(C)(C)C)CO	> 100 µM	> 100 µM	> 100 µM		> 100 µM	> 100 µM	> 100 µM	> 100 µM	> 100 µM	> 100 µM	> 100 µM									
CC(=O)O[C@H]1CC[C@@]2(C)C(=CC[C@@H]3[C@@H]2CC[C@](C)(c2nnc(C)o2)[C@H]3CC#N)C1	> 100 µM		> 100 µM	> 100 µM	> 100 µM	> 100 µM	> 100 µM	> 100 µM	> 100 µM	> 100 µM	> 100 µM									
CCCCCCCC(CC(=O)NC(CO)C(=O)NC(CO)CC(C)C)OC(=O)CC(CCCCCCC)OC(=O)CC(CCCCCCC)OC1OC(C)C(O)C(OC2OC(C)C(O)C(O)C2O)C1O (configuration not stated)	26.3 µM	43.1 µM	34.4 µM	13.3 µM	33.2 µM	28.2 µM	31.2 µM	15.9 µM	26.6 µM	35 µM	25.3 µM									
COC(=O)[C@]1(C)CCC[C@]2(C)[C@@H](CCC(=O)C(C)C)[C@]3(C=O)O[C@@H]3C[C@H]21	> 100 µM	> 100 µM	> 100 µM	> 100 µM	31.9 µM	> 100 µM	51.7 µM	> 100 µM	95.7 µM	> 100 µM	> 100 µM									
CCCCOC(=O)NC(Nc1ccc(S(=O)(=O)Nc2ncccn2)cc1)(C(F)(F)F)C(F)(F)F	> 100 µM	65.9 µM	> 100 µM		> 100 µM	> 100 µM	> 100 µM	> 100 µM	> 100 µM	> 100 µM	> 100 µM									
COc1cc(/C=C/C(=O)c2ccc(F)cc2)ccc1OCCCCCOc1cc2c(cc1OC)C(=O)N1CCCC1C=N2 (configuration not stated)	0.0501 µM	0.0382 µM	3.28 µM	1.51 µM		0.0418 µM	0.283 µM	< 0.0113 µM	1.19 µM		0.0579 µM	0.0147 µM	< 0.0174 µM	0.0253 µM	0.062 µM	< 0.01 µM	0.11 µM	< 0.01 µM	0.0231 µM	0.0249 µM
O=C(Oc1c(Br)cc(Br)cc1C(=O)Oc1ccccc1)C(=O)Oc1c(Br)cc(Br)cc1C(=O)Oc1ccccc1	84.1 µM	> 100 µM	> 100 µM	93.3 µM	57.9 µM	55.1 µM	27.2 µM	56.1 µM	75 µM	50.3 µM	> 100 µM									
Cc1cc(C)c(S(=O)(=O)N(CCCN)OCCON(CCCN)S(=O)(=O)c2c(C)cc(C)cc2C)c(C)c1	4.49 µM	4.24 µM	47.7 µM	3.24 µM	> 71.4 µM	> 100 µM	> 100 µM	> 100 µM	> 45.1 µM	13.1 µM	> 100 µM									
Fc1cccc(C2SCc3nc4cc5ccccc5cc4n32)c1 (configuration not stated)	> 100 µM	> 100 µM	> 100 µM	> 100 µM	> 100 µM	> 100 µM	> 100 µM	> 100 µM	> 100 µM	> 100 µM	> 100 µM									
CC(CNC(=O)c1ccccc1)(CNC(=O)c1ccccc1)[N+](=O)[O-]	> 100 µM		> 100 µM	> 100 µM	> 100 µM	> 100 µM	> 100 µM	> 100 µM	> 100 µM	> 100 µM	> 100 µM									
Oc1c(Cl)c(Cl)c(O)c(CCNc2nccs2)c1Cl	35.8 µM	30.3 µM	47.2 µM	48.4 µM	29.3 µM	94.3 µM	20.3 µM	25.6 µM	34.8 µM	33.5 µM	19.8 µM									
CCN(CC)C(=S)N/N=C/c1cc(OC)ccc1O	> 100 µM	27.8 µM	> 100 µM	> 100 µM		28.6 µM	> 100 µM	8.9 µM	> 100 µM	> 100 µM	> 100 µM									
